Each compound was assayed against T1, His-CHK1 (Homo sapiens, UniProt O14757) (assay: CHK1 SPA Assay). Settings: not given.
T1 construct: fused on or other part: His tag
T1 sequence (O14757 1-265 limits assumed): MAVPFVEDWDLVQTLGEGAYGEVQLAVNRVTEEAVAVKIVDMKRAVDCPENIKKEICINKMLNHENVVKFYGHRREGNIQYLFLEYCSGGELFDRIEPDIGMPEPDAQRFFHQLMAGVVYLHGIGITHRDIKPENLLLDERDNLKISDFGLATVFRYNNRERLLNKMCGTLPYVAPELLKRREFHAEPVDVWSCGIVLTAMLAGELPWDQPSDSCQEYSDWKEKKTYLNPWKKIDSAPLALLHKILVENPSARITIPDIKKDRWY
Format: biochemical

Row | SMILES | IC50 [nM]
1 | Cn1cc(-c2cnn3c(N)c(Br)c(CC4CCCNC4)nc23)cn1 (stereo not drawn) | 9
2 | Cc1cc(Nc2cc(C3CCCNC3)nc3c(-c4cnn(C)c4)cnn23)sn1 (stereo not drawn) | 7

Same assay, conditions: read-out: CHK1 inhibitory activity (IC50)

Row | SMILES | IC50 [nM]
3 | Cn1cc(-c2cnn3c(N)c(I)c(C4CCCNC4)nc23)cn1 (stereo not drawn) | 3
4 | CC#Cc1c(C2CCCNC2)nc2c(-c3cnn(C)c3)cnn2c1N (stereo not drawn) | 45

Same assay, conditions: recombinant His-CHK1, biotinylated CDC25C peptide substrate, 1 μM ATP, 2 hours at room temperature; read-out: CHK1 inhibitory activity (IC50)

Row | SMILES | IC50 [nM]
5 | Nc1c(Br)c(C2CCCNC2)nc2c(-c3ccoc3)cnn12 (stereo not drawn) | 25
6 | N#Cc1cc(-c2cnn3c(N)c(Br)c(C4CCCNC4)nc23)co1 (stereo not drawn) | 4
7 | Nc1c(Br)c(N2CC[C@H](N)C2)nc2c(-c3ccsc3)cnn12 | 430
8 | Cn1cc(-c2cnn3c(N)c(Br)c(C4CNCCS4)nc23)cn1 (stereo not drawn) | 6
9 | Cn1cc(-c2cnn3c(N)c(Br)c(CCCN)nc23)cn1 | 11
10 | Cn1cc(-c2cnn3c(N)cc(CC4CCNCC4)nc23)cn1 | 400
11 | Cn1cc(-c2cnn3c(N)c(-c4cccs4)c(C4CCCNC4)nc23)cn1 (stereo not drawn) | 90
12 | Cc1cc(Nc2cc(N3CC[C@@H](N)C3)nc3c(-c4cnn(C)c4)cnn23)sn1 | 50

Second part, the compound after the results:

Row | IC50 [nM] | SMILES
13 | 120 | N#Cc1ccc(-c2cnn3c(N)cc(C4CCCNC4)nc23)cc1 (stereo not drawn)
14 | 60 | Cn1cc(-c2cnn3c(Nc4ccc(-n5ccnc5)cc4)cc(C4CCCNC4)nc23)cn1 (stereo not drawn)
15 | 250 | CN(C)c1cccc(Nc2cc(C3CCCNC3)nc3c(-c4cnn(C)c4)cnn23)c1 (stereo not drawn)
16 | 390 | Cn1cc(-c2cnn3c(Nc4cccc(S(N)(=O)=O)c4)cc(C4CCCNC4)nc23)cn1 (stereo not drawn)
17 | 100 | Cn1cc(-c2cnn3c(Nc4ccncc4)cc(C4CCCNC4)nc23)cn1 (stereo not drawn)
18 | 7 | Cc1cc(Nc2cc(C3CCCNC3)nc3c(-c4coc(C#N)c4)cnn23)sn1 (stereo not drawn)

— patent US8211854B2, “Methods for inhibiting protein kinases” (Schering Corporation, priority 2005, dated 2012)
